Laboratory results published in patent publication US20230027361A1, “METTL3 MODULATORS” (priority 2019, published 2023).
Read-outs that look alike come from different tables or passages of the source.

Columns and labels:
METTL1/WDR4 = METTL1/WDR4 (Homo sapiens, UniProt Q9UBP6); assay: METTL1 Assay (METTL1 biochemical assay)
Procedure, shortened: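 Radiometric methyltransfer by METTL1/WDR4 (6.25 nM f.c., 5 min preincubation) at ambient temperature in HEPES pH 7.5, KCl, MgCl2, DTT; started with 25 nM 3′-biotinylated RNA and 60 nM 3H-SAM, run 20 min, quenched with 15 μM cold SAM. Product captured on streptavidin flashplates (2 h, 25° C), counted by scintillation.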

PRMT5-MEP50 = PRMT5-MEP50 (Homo sapiens, UniProt O14744); assay: PRMT5 Assay (PRMT5 biochemical assay)
PRMT5-MEP50, sequence (O14744 whole entry): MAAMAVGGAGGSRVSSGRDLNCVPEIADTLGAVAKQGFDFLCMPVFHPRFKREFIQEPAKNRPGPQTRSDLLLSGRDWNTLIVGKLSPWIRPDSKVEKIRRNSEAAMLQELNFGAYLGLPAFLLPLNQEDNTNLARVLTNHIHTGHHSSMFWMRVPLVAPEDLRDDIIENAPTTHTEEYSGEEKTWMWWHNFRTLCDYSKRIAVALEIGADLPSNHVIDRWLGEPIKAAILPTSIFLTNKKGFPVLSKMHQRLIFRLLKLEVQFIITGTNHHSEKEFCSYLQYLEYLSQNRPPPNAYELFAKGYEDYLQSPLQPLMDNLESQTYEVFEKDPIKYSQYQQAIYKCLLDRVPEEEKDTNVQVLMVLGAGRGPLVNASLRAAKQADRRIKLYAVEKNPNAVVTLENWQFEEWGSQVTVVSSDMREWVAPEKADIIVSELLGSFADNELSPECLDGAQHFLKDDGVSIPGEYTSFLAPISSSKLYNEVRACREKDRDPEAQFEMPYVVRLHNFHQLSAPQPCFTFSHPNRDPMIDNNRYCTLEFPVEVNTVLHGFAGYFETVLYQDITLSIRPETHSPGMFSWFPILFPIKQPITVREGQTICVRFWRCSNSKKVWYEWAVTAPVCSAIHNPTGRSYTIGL
PRMT5-MEP50, sequence (Q9BQA1 whole entry partner): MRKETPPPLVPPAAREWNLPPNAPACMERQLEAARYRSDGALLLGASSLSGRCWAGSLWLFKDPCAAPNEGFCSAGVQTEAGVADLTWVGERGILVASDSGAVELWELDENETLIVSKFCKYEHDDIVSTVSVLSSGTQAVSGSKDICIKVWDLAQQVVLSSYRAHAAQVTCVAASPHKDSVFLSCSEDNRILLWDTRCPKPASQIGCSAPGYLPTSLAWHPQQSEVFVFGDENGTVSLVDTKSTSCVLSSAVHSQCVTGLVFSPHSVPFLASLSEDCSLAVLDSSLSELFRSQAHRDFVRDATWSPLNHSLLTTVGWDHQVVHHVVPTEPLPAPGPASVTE
Procedure, shortened: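 Radiometric methyltransferase read-out: after 60 min reaction, excess unlabelled SAM (15 μM) stops turnover and biotinylated H4 peptide (100 nM) carrying 3H-methyl from 250 nM 3H-SAM is captured on streptavidin flashplates (2 h, 25° C) for scintillation counting. Enzyme, 2.5 nM PRMT5-MEP50, was preincubated 5 min with compound in pH 8.0 Tris buffer with DTT and Tween.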

METTL3/METTL14 = METTL3/METTL14 (Homo sapiens, UniProt Q86U44); assay: METTL3-14 Standard Enzyme Assay (METTL3 biochemical assay)
METTL3/METTL14, sequence (Q86U44 whole entry, species assumed): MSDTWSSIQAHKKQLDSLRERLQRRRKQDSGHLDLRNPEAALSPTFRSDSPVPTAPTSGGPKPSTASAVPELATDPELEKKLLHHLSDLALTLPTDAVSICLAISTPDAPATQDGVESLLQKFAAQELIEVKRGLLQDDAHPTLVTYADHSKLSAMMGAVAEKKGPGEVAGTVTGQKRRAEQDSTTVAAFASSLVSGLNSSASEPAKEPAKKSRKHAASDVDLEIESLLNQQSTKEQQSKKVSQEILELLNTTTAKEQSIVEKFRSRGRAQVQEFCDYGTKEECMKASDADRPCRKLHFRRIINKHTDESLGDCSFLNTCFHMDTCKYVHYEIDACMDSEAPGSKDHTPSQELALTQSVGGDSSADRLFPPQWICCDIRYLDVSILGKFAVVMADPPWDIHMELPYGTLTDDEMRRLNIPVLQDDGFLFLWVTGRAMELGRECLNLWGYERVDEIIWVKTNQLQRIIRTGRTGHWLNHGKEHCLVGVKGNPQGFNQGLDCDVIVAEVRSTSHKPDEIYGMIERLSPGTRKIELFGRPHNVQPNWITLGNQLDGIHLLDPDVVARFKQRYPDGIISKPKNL
METTL3/METTL14, sequence (Q9HCE5 whole entry partner, species assumed): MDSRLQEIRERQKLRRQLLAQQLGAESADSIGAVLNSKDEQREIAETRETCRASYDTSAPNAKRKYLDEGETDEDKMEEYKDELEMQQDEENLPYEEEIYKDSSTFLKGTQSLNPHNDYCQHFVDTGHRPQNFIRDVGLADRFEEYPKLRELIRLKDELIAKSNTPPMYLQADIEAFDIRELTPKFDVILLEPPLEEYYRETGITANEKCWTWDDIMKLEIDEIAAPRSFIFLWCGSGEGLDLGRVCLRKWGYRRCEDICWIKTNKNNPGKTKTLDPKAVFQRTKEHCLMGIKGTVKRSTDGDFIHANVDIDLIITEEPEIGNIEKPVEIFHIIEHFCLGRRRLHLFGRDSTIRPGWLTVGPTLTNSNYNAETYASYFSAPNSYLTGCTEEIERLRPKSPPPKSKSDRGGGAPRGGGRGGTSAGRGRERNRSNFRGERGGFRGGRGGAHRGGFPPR
Procedure, shortened: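 Tritium transfer from ³H-SAM (100 nM) to biotinylated RNA (100 nM) captured on streptavidin flashplates and counted by scintillation. Enzyme complex (2.5 nM) with compound, 5 min preincubation, 30 min reaction at ambient temperature, HEPES pH 7.5 buffer, stopped by excess unlabeled SAM.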

MOLM-13 cells = assay: MOLM-13 96 Hour Cell Proliferation Assay; format: cell-based; details: Homo sapiens
Procedure, shortened: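 MOLM-13 cells in RPMI 1640 with 10% FBS were plated overnight at 37 °C, then exposed to compound dilutions at 0.25% DMSO final for 96 h. Viability was read by CellTiter-Glo luminescence, normalised to staurosporine (100% death) and DMSO (0% death) controls, and IC50 was fitted by 4-parameter logistic regression.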

METTL16 = molecular target: T1, METTL16 (Homo sapiens, UniProt Q86W50); assay: METTL16 Assay (METTL16 biochemical assay); details: read-out: METTL16 IC50
T1 sequence (Q86W50 1-562): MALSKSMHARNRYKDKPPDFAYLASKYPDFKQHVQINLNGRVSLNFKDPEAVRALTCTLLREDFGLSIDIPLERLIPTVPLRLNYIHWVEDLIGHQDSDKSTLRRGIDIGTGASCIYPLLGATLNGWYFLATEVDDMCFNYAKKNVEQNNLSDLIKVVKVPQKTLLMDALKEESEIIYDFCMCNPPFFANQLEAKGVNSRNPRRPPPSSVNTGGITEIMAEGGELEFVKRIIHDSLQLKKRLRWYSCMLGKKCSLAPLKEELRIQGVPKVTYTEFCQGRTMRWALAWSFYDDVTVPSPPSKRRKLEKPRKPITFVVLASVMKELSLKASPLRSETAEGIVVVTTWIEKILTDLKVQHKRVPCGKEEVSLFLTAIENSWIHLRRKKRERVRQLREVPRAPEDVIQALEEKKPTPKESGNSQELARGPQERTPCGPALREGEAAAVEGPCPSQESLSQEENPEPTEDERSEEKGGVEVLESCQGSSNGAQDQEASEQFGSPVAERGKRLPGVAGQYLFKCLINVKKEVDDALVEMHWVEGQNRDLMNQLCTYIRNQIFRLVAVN
Protocol: Assays were performed in a 25 μl-volume in 384-well V-bottom polypropylene microplates (Greiner Bio-One, cat. No. 781280) at ambient temperature. Optimized 1× assay buffer was 20 mM HEPES pH 7.5, 50 mM KCl, 1 mM DTT, 0.01% Tween, 0.01% BSG, 0.004 U/μl RNAseOUT (cat. No. 10777019, ThermoFisher Scientific, Waltham, Mass.). For compound screening METTL16 (final concentration, f.c.=100 nM) was added using a Multidrop Combi (ThermoFisher Scientific, Waltham, Mass.) and preincubated for 5 min. Reactions were started by adding 3′ biotinylated RNA ([…]-biotin) (f.c.=50 nM), 3H-SAM (f.c.=200 nM) and non-radiolabeled SAM (f.c.=800 nM) substrates. Reactions proceeded for 20 minutes and were quenched with excess non-radioactive SAM (f.c.=100 μM). The reactions were then transferred to streptavidin-coated flashplates and incubated for 2 hours at 25° C. Following two washing cycles with 0.1% Tween-20, the plates were sealed and read on a TopCount (PerkinElmer, Waltham, Mass.) plate-based scintillation counter. For determination of kinetic parameters, reaction times were optimized so that measurements were taken during the initial velocity phase of the reaction.

[1] = tested on: m6A in cellular mRNA of MOLM-13 cells; assay: m6A-mRNA LC-MS/MS Assay (m6A cellular assay); format: cell-based; details: Homo sapiens, MOLM-13, read-out: m^6A IC50
Protocol: Cells were harvested by centrifugation followed by mRNA extraction using DIRECT Dynabeads mRNA DIRECT kit (Life Technologies). mRNA was quantified on NanoDrop spectrophotometer (Thermo Fisher Scientific) and digested into single nucleosides using Nucleoside Digestion Mix (New England Biolabs). […] Quantification is performed in comparison with the standard curve, obtained from pure nucleoside standards (Selleck Chemicals) running with the same batch of samples. Percentage m^6A in cellular mRNA is calculated as 100*(m^6A/A).

[2] = read-out: METTL1 IC50, METTL1 biochemical assay
[3] = PRMT5 biochemical assay, read-out: PRMT5 IC50
[4] = METTL3 biochemical assay, read-out: METTL3 IC50
[5] = METTL1 biochemical assay, read-out: METTL1 IC50

METTL1/WDR4, sequence (Q9UBP6 whole entry, species assumed): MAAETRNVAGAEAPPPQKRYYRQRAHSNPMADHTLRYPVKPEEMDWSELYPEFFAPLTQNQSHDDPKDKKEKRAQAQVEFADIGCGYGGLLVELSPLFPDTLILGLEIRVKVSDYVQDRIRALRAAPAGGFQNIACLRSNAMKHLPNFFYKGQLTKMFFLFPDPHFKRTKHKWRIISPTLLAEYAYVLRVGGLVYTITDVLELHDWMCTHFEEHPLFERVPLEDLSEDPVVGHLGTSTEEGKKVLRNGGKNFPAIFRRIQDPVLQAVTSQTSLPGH
METTL1/WDR4, sequence (P57081 whole entry partner, species assumed): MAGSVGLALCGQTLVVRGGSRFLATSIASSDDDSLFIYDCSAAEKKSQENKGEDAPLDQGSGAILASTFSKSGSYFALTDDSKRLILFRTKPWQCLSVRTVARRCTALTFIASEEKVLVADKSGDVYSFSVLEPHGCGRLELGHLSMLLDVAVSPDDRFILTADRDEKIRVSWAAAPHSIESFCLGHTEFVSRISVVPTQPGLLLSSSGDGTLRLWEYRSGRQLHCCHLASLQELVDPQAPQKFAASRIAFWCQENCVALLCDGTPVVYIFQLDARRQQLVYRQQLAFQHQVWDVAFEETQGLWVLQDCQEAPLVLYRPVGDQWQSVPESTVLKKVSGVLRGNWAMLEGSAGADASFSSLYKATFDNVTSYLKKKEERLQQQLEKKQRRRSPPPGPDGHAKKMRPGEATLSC

Structure (SMILES): Nc1ncnc2c1ccn2[C@@H]1O[C@H](CCc2ccc3ccc(N4CCCC4)nc3c2)[C@@H](O)[C@H]1O [I-68]
- IC50 (METTL1/WDR4; [2]): > 1000 nM
- IC50 (PRMT5-MEP50; [3]): 100 to 1000 nM
- IC50 (METTL3/METTL14; [4]): 10 to 100 nM
- IC50 (MOLM-13 cells; MOLM-13, 96 h): 1000 to 10000 nM
- IC50 (METTL16): > 1000 nM

Structure (SMILES): CNc1ccc2cc(OC[C@H]3O[C@@H](n4cc(Br)c5c(N)ncnc54)[C@H](O)[C@@H]3O)ccc2n1 [I-69]
- IC50 (METTL1/WDR4; [5]): > 1000 nM
- IC50 (PRMT5-MEP50; [3]): 10 to 100 nM
- IC50 (METTL3/METTL14; [4]): 10 to 100 nM
- IC50 (METTL16): > 1000 nM

Structure (SMILES): Nc1ccc2ccc(OC[C@H]3O[C@@H](n4cc(Br)c5c(N)ncnc54)[C@H](O)[C@@H]3O)cc2n1 [I-71]
- IC50 (METTL1/WDR4; [2]): > 1000 nM
- IC50 (PRMT5-MEP50; [3]): < 10 nM
- IC50 (METTL3/METTL14; [4]): 10 to 100 nM
- IC50 (METTL16): > 1000 nM

Structure (SMILES): Nc1ncnc2c1c(Br)cn2[C@@H]1O[C@H](COc2ccc3ccc(N4CCCC4)nc3c2)[C@@H](O)[C@H]1O [I-72]
- IC50 (METTL1/WDR4; [2]): > 1000 nM
- IC50 (PRMT5-MEP50; [3]): 10 to 100 nM
- IC50 (METTL3/METTL14; [4]): 10 to 100 nM
- IC50 (METTL16): > 1000 nM

Structure (SMILES): CNc1ccc2cnc(OC[C@H]3O[C@@H](n4cc(Br)c5c(N)ncnc54)[C@H](O)[C@@H]3O)nc2n1 [I-74]
- IC50 (METTL1/WDR4; [2]): > 1000 nM
- IC50 (PRMT5-MEP50; [3]): 100 to 1000 nM
- IC50 (METTL3/METTL14; [4]): > 1000 nM
- IC50 (MOLM-13 cells; MOLM-13, 96 h): > 10000 nM
- IC50 (METTL16): > 1000 nM

Structure (SMILES): Nc1ncnc2c1ccn2[C@@H]1C[C@H](COc2ccc3ccc(N4CCCC4)nc3c2)[C@@H](O)[C@H]1O [I-82]
- IC50 (METTL1/WDR4; [2]): > 1000 nM
- IC50 (PRMT5-MEP50; [3]): 100 to 1000 nM
- IC50 (METTL3/METTL14; [4]): 100 to 1000 nM
- IC50 (METTL16): > 1000 nM

Structure (SMILES): Nc1ncnc2c1ccn2[C@@H]1C[C@H](CCc2ccc3ccc(N4CCCC4)nc3c2)[C@@H](O)[C@H]1O [I-83]
- IC50 (METTL1/WDR4; [2]): > 1000 nM
- IC50 (PRMT5-MEP50; [3]): 10 to 100 nM
- IC50 (METTL3/METTL14; [4]): 100 to 1000 nM
- IC50 (METTL16): > 1000 nM

Structure (SMILES): Cc1cn2ccc(CC[C@H]3C[C@@H](n4ccc5c(N)ncnc54)[C@H](O)[C@@H]3O)cc2n1 [I-84]
- IC50 (METTL1/WDR4; [5]): > 1000 nM
- IC50 (PRMT5-MEP50; [3]): < 10 nM
- IC50 (METTL3/METTL14; [4]): > 1000 nM
- IC50 (METTL16): > 1000 nM

Structure (SMILES): CNc1ccc2ccc(OC[C@@H]3C[C@@H](O)[C@H](n4cc(C5CCCC5)c5c(N)ncnc54)O3)cc2n1 [I-141]
- IC50 (METTL1/WDR4; [2]): > 1000 nM
- IC50 (PRMT5-MEP50; [3]): 100 to 1000 nM
- IC50 (METTL3/METTL14; [4]): 100 to 1000 nM
- IC50 (METTL16): > 1000 nM

Structure (SMILES): Cn1ccc(-c2cn([C@@H]3C[C@H](COc4ccc5ccc(N6CCC6)nc5c4)[C@@H](O)C3)c3ncnc(N)c23)n1 [I-169, (1S,2R,4R)-4-[4-amino-5-(1-methyl-1H-pyrazol-3-yl)-7H-pyrrolo[2,3-d]pyrimidin-7-yl]-2-({[2-(azetidin-1-yl)quinolin-7-yl]oxy}methyl)cyclopentan-1-ol]
- IC50 (PRMT5-MEP50): > 1000 nM
- IC50 (METTL3/METTL14): < 10 nM
- IC50 (MOLM-13 cells): 1000 to 10000 nM
- IC50 [1]: 1000 to 10000 nM

Structure (SMILES): Cn1ccc(-c2cn([C@@H]3C[C@H](CCc4ccc5ccc(N6CCC6)nc5c4)[C@@H](O)C3)c3ncnc(N)c23)n1 [I-205]
- IC50 (PRMT5-MEP50): > 1000 nM
- IC50 (METTL3/METTL14): < 10 nM
- IC50 (MOLM-13 cells): < 1000 nM
- IC50 [1]: 1000 to 10000 nM

Structure (SMILES): Cc1ccn(-c2cn([C@@H]3O[C@H](COc4ccc5ccc(N6CCC6)nc5c4)[C@@H](O)[C@@H]3F)c3ncnc(N)c23)n1 [I-218]
- IC50 (PRMT5-MEP50): > 1000 nM
- IC50 (METTL3/METTL14): < 10 nM
- IC50 (MOLM-13 cells): 1000 to 10000 nM
- IC50 [1]: 1000 to 10000 nM

Structure (SMILES): CNc1ccc2ccc(OC[C@H]3O[C@@H](n4ccc5c(N)nc(C(=O)OC)nc54)[C@@H](F)[C@@H]3O)cc2n1 [I-223]
- IC50 (METTL1/WDR4): > 1000 nM
- IC50 (PRMT5-MEP50; [3]): > 1000 nM
- IC50 (METTL3/METTL14; [4]): > 1000 nM
- IC50 (METTL16): > 1000 nM
